Measured values published in patent US20260262643A1, “HERBICIDAL BENZOXAZINES” (FMC CORPORATION, priority 2022, published 2026).

Tests used:
sedge, umbrella = assay: Test D flooded paddy test; type: in vivo, Cyperus difformis; conditions: 250 g ai/ha, applied to paddy water, visual rating after 13 to 14 days, scale 0 to 100 (0 no effect, 100 complete control)
In short: (§1)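 Compounds go straight into paddy water over 2-leaf plants in pots flooded to 3 cm. Greenhouse holding lasts 13 to 14 days. Injury is scored by eye against controls from 0 (none) to 100 (complete control).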

pigweed, palmer [1] = assay: Test C preemergence; type: in vivo, Amaranthus palmeri; conditions: 0 to 100 scale (0 no effect, 100 complete control)
In short: (§2)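 Greenhouse herbicide screen, 10-day duration. Test chemicals in solvent/surfactant blend were sprayed onto soil at sowing (pre) or onto 2–10 cm seedlings at one to two leaves (post); injury scored visually against controls, 0 no effect to 100 complete control.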

soybean [2] = assay: Test C preemergence; type: in vivo, Glycine max; conditions: 0 to 100 scale (0 no effect, 100 complete control)
In short: as §2

barnyardgrass [3] = assay: Test C preemergence; type: in vivo, Echinochloa crusgalli; conditions: 0 to 100 scale (0 no effect, 100 complete control)
In short: as §2

green foxtail [4] = assay: Test C preemergence; type: in vivo, Setaria viridis; conditions: 0 to 100 scale (0 no effect, 100 complete control)
In short: as §2

wheat [5] = assay: Test C postemergence; type: in vivo, Triticum aestivum; conditions: 10 days
In short: as §2

galium = assay: Test C postemergence; type: in vivo, Galium aparine; conditions: 10 days
In short: as §2

horseweed = assay: Test C postemergence; type: in vivo, Erigeron canadensis; conditions: 10 days
In short: as §2

soybean [6] = assay: Test C postemergence; type: in vivo, Glycine max; conditions: 10 days
In short: as §2

corn [7] = assay: Test C postemergence; type: in vivo, Zea mays; conditions: 10 days
In short: as §2

ducksalad = assay: Test D flooded paddy test; type: in vivo, Heteranthera limosa; conditions: 250 g ai/ha, applied to paddy water, visual rating after 13 to 14 days, scale 0 to 100 (0 no effect, 100 complete control)
In short: as §1

blackgrass [8] = assay: Test C preemergence; type: in vivo, Alopecurus myosuroides; conditions: 0 to 100 scale (0 no effect, 100 complete control)
In short: as §2

barnyardgrass [9] = assay: Test C postemergence; type: in vivo, Echinochloa crusgalli; conditions: 10 days
In short: as §2

ragweed [10] = assay: Test C preemergence; type: in vivo, Ambrosia artemisiifolia; conditions: 0 to 100 scale (0 no effect, 100 complete control)
In short: as §2

blackgrass [11] = assay: Test C postemergence; type: in vivo, Alopecurus myosuroides; conditions: 10 days
In short: as §2

ryegrass, Italian [12] = assay: Test C postemergence; type: in vivo, Lolium multiflorum; conditions: 10 days
In short: as §2

rice = assay: Test D flooded paddy test; type: in vivo, Oryza sativa; conditions: 250 g ai/ha, applied to paddy water, visual rating after 13 to 14 days, scale 0 to 100 (0 no effect, 100 complete control)
In short: as §1

wheat [13] = assay: Test C preemergence; type: in vivo, Triticum aestivum; conditions: 0 to 100 scale (0 no effect, 100 complete control)
In short: as §2

barnyardgrass [14] = assay: Test D flooded paddy test; type: in vivo, Echinochloa crus-galli; conditions: 250 g ai/ha, applied to paddy water, visual rating after 13 to 14 days, scale 0 to 100 (0 no effect, 100 complete control)
In short: as §1

green foxtail [15] = assay: Test C postemergence; type: in vivo, Setaria viridis; conditions: 10 days
In short: as §2

kochia [16] = assay: Test C preemergence; type: in vivo, Bassia scoparia; conditions: 0 to 100 scale (0 no effect, 100 complete control)
In short: as §2

pigweed, palmer [17] = assay: Test C postemergence; type: in vivo, Amaranthus palmeri; conditions: 10 days
In short: as §2

kochia [18] = assay: Test C postemergence; type: in vivo, Bassia scoparia; conditions: 10 days
In short: as §2

ryegrass, Italian [19] = assay: Test C preemergence; type: in vivo, Lolium multiflorum; conditions: 0 to 100 scale (0 no effect, 100 complete control)
In short: as §2

corn [20] = assay: Test C preemergence; type: in vivo, Zea mays; conditions: 0 to 100 scale (0 no effect, 100 complete control)
In short: as §2

ragweed [21] = assay: Test C postemergence; type: in vivo, Ambrosia artemisiifolia; conditions: 10 days
In short: as §2

oat, wild [22] = assay: Test C preemergence; type: in vivo, Avena fatua; conditions: 0 to 100 scale (0 no effect, 100 complete control)
In short: as §2

oat, wild [23] = assay: Test C postemergence; type: in vivo, Avena fatua; conditions: 10 days
In short: as §2

[24] = Preemergence, 500 g ai/ha, visual rating after 10 days
[25] = Test C, preemergence, 125 g ai/ha
[26] = 125 g ai/ha, postemergence, 0 to 100 scale, 0 no effect, 100 complete control
[27] = Postemergence, 500 g ai/ha, visual 0 to 100 scale (0 no effect, 100 complete control)

In the case of `COc1c(C)cc(-n2cnc(C(C)C)n2)cc1C(=O)N1C[C@H](C)Oc2c(Cl)cccc21` [Compound 260], the “Plant response rating, Sedge, Umbrella (Flood)” value (sedge, umbrella) is reported as 0, the “Plant response rating, Pigweed, Palmer” value (pigweed, palmer [1]; [24]) is reported as 100 and the “Pigweed, Palmer plant response rating” value (pigweed, palmer [1]; [25]) is reported as 40. For the same compound, the “Plant response rating, Soybean” value (soybean [2]; [24]) was 40, the “Soybean plant response rating” value (soybean [2]; [25]) was 10 and the “Plant response rating, Barnyardgrass” value (barnyardgrass [3]; [24]) was 90. For the same compound, the “Barnyardgrass plant response rating” value (barnyardgrass [3]; [25]) was 70, the “Plant response rating, Foxtail, Green” value (green foxtail [4]; [24]) was 100 and the “Foxtail, Green plant response rating” value (green foxtail [4]; [25]) was 100. The “Plant response rating, Wheat” value (wheat [5]; [26]) was 20, the “Plant response rating, Wheat” value (wheat [5]; [27]) was 20 and the “Plant response rating, Galium” value (galium; [26]) was 90. For the same compound, the “Plant response rating, Galium” value (galium; [27]) was 100, the “Plant response rating, Horseweed” value (horseweed; [26]) was 0 and the “Plant response rating, Horseweed” value (horseweed; [27]) was 10. The “Plant response rating, Soybean” value (soybean [6]; [26]) was 100, the “Plant response rating, Soybean” value (soybean [6]; [27]) was 100 and the “Plant response rating, Corn” value (corn [7]; [26]) was 10. For the same compound, the “Plant response rating, Corn” value (corn [7]; [27]) was 60, the “Plant response rating, Ducksalad (Flood)” value (ducksalad) was 0 and the “Plant response rating, Blackgrass” value (blackgrass [8]; [24]) was 80. For the same compound, the “Blackgrass plant response rating” value (blackgrass [8]; [25]) was 60, the “Plant response rating, Barnyardgrass” value (barnyardgrass [9]; [26]) was 10 and the “Plant response rating, Barnyardgrass” value (barnyardgrass [9]; [27]) was 50. The “Plant response rating, Ragweed” value (ragweed [10]; [24]) was 40, the “Ragweed plant response rating” value (ragweed [10]; [25]) was 0 and the “Plant response rating, Blackgrass” value (blackgrass [11]; [26]) was 20. For the same compound, the “Plant response rating, Blackgrass” value (blackgrass [11]; [27]) was 30, the “Plant response rating, Ryegrass, Italian” value (ryegrass, Italian [12]; [26]) was 60 and the “Plant response rating, Ryegrass, Italian” value (ryegrass, Italian [12]; [27]) was 60. For the same compound, the “Plant response rating, Rice (Flood)” value (rice) was 0, the “Plant response rating, Wheat” value (wheat [13]; [24]) was 20 and the “Wheat plant response rating” value (wheat [13]; [25]) was 20. The “Plant response rating, Barnyardgrass (Flood)” value (barnyardgrass [14]) was 0, the “Plant response rating, Foxtail, Green” value (green foxtail [15]; [26]) was 10 and the “Plant response rating, Foxtail, Green” value (green foxtail [15]; [27]) was 60. For the same compound, the “Plant response rating, Kochia” value (kochia [16]; [24]) was 80, the “Kochia plant response rating” value (kochia [16]; [25]) was 60 and the “Plant response rating, Pigweed, Palmer” value (pigweed, palmer [17]; [26]) was 10. For the same compound, the “Plant response rating, Pigweed, Palmer” value (pigweed, palmer [17]; [27]) was 50, the “Plant response rating, Kochia” value (kochia [18]; [26]) was 60 and the “Plant response rating, Kochia” value (kochia [18]; [27]) was 90. For the same compound, the “Plant response rating, Ryegrass, Italian” value (ryegrass, Italian [19]; [24]) was 90, the “Ryegrass, Italian plant response rating” value (ryegrass, Italian [19]; [25]) was 80 and the “Plant response rating, Corn” value (corn [20]; [24]) was 10. The “Corn plant response rating” value (corn [20]; [25]) was 0, the “Plant response rating, Ragweed” value (ragweed [21]; [26]) was 0 and the “Plant response rating, Ragweed” value (ragweed [21]; [27]) was 0. For the same compound, the “Plant response rating, Oat, Wild” value (oat, wild [22]; [24]) was 90, the “Oat, Wild plant response rating” value (oat, wild [22]; [25]) was 30 and the “Plant response rating, Oat, Wild” value (oat, wild [23]; [26]) was 30. The “Plant response rating, Oat, Wild” value (oat, wild [23]; [27]) was 50.
